Measurements: patent publication US20070248668A1, “Pharmaceutical compositions and uses thereof” (priority 2006, published 2007)
Values after ≈ are worked out from the molar mass of the structure shown.

How the values were obtained:
[1] = Rifalazil solubility in surfactants and surfactant mixtures; format: physicochemical; conditions: thermodynamic from solid
Procedure: The solubility of rifalazil in various surfactants and surfactant mixtures was measured. Excess Rifalazil, drug substance, was equilibrated with the excipient or excipient blend at the indicated temperature for 24 hrs under constant mixing. At the end of the equilibration time, insoluble drug was removed by centrifugation and the supernatant was assayed by UV spectroscopy and/or HPLC to determine the concentration of Rifalazil.

[2] = Pharmacokinetics after single peroral 5 mg rifalazil, fed and fasted; format: in vivo; conditions: liquid-filled vs microgranulated, beagle dogs
Procedure: Pharmacokinetic parameters were determined following a single peroral administration of 5 mg of rifalazil in healthy male beagle dogs. The rifalazil was formulated either as a liquid-filled capsule of Example 5 or as a powder-filled capsule containing microgranulated rifalazil as described in U.S. Pat. No. 5,547,683.
Both formulations were administered under fed and fasted conditions. All animals were fasted overnight prior to dosing. Animals designated as “fed” were administered a blended combination of dog chow and water in a 1:3 ratio (e.g. 250 g chow and 750 g water) via oral gavage at a dose volume of 20 mL/kg within approximately 30 minutes prior to dosing and food was provided Ad-libitum after approximately 4 hours following dosing. Animals in “fasted” groups were not fed prior to dosing and food was withheld until after approximately 4 hours after dosing. […]
Pharmacokinetic endpoints and parameters were calculated by noncompartmental analysis (NCA) using WinNonlin®.
The pharmacokinetic parameters Tmax, Cmax, AUCt, AUC∞, T1/2 (elimination), and F (bioavailability) were calculated as well as the coefficient of variation (CV) in each. […]

solubility at 24 h ([1]; Formulation M1 (excipient blend), aqueous with cosolvent or surfactant or cyclodextrin, in Formulation M1, 24 hrs equilibration): 15.5 mg/mL (≈ 16.5 mM) | solubility at 24 h ([1]; Formulation M3 (excipient blend), aqueous with cosolvent or surfactant or cyclodextrin, in Formulation M3, 24 hrs equilibration): 25.8 mg/mL (≈ 27.4 mM) | solubility at 24 h ([1]; Formulation M4 (excipient blend), aqueous with cosolvent or surfactant or cyclodextrin, in Formulation M4, 24 hrs equilibration): 34.1 mg/mL (≈ 36.2 mM) | solubility at 24 h ([1]; Formulation M5 (excipient blend), aqueous with cosolvent or surfactant or cyclodextrin, in Formulation M5, 24 hrs equilibration): 28.4 mg/mL (≈ 30.1 mM) | solubility at 24 h ([1]; Formulation M6 (excipient blend), aqueous with cosolvent or surfactant or cyclodextrin, in Formulation M6, 24 hrs equilibration): 30.8 mg/mL (≈ 32.8 mM) | solubility at 24 h ([1]; Formulation M8 (excipient blend), aqueous with cosolvent or surfactant or cyclodextrin, in Formulation M8, 24 hrs equilibration): 26.9 mg/mL (≈ 28.6 mM) | solubility at 24 h ([1]; Formulation M9 (excipient blend), aqueous with cosolvent or surfactant or cyclodextrin, in Formulation M9, 24 hrs equilibration): 19.6 mg/mL (≈ 20.8 mM) | solubility at 24 h ([1]; Formulation M10 (excipient blend), aqueous with cosolvent or surfactant or cyclodextrin, in Formulation M10, 24 hrs equilibration): 36.9 mg/mL (≈ 39.2 mM) | solubility at 24 h ([1]; Formulations A and B (excipient blend), aqueous with cosolvent or surfactant or cyclodextrin, in Formulations A and B, 24 hrs equilibration): 23 mg/mL (≈ 24.4 mM) | solubility at 24 h ([1]; Formulations C and D (excipient blend), aqueous with cosolvent or surfactant or cyclodextrin, in Formulations C and D, 24 hrs equilibration): 21 mg/mL (≈ 22.3 mM) | solubility at 24 h ([1]; aqueous with cosolvent or surfactant or cyclodextrin, in Cremophor ELP, 24 hrs equilibration at 37° C.): 35 mg/mL (≈ 37.2 mM) | solubility at 24 h ([1]; aqueous with cosolvent or surfactant or cyclodextrin, in Cremophor RH40, 24 hrs equilibration at 37° C.): 23 mg/mL (≈ 24.4 mM) | solubility at 24 h ([1]; aqueous with cosolvent or surfactant or cyclodextrin, in Labrafil M 1944 CS, 24 hrs equilibration): 41.6 mg/mL (≈ 44.2 mM) | solubility at 24 h ([1]; aqueous with cosolvent or surfactant or cyclodextrin, in Labrafil M 19944 CS:Etocas 35 (5:1), 24 hrs equilibration): 29 mg/mL (≈ 30.8 mM) | solubility at 24 h ([1]; aqueous with cosolvent or surfactant or cyclodextrin, in Labrasol, 24 hrs equilibration): 23 mg/mL (≈ 24.4 mM) | solubility at 24 h ([1]; aqueous with cosolvent or surfactant or cyclodextrin, in Lauroglycol 90, 24 hrs equilibration): 40 mg/mL (≈ 42.5 mM) | solubility at 24 h ([1]; aqueous with cosolvent or surfactant or cyclodextrin, in TPGS, 24 hrs equilibration at 37° C.): 22 mg/mL (≈ 23.4 mM) | solubility at 24 h ([1]; oil or lipid, in Oleic Acid, 24 hrs equilibration): 59 mg/mL (≈ 62.7 mM) | solubility at 24 h ([1]; oil or lipid, in Peceol, 24 hrs equilibration): 14 mg/mL (≈ 14.9 mM) | solubility at 24 h ([1]; organic solvent or mixture, in PEG 400, 24 hrs equilibration): 8 mg/mL (≈ 8.5 mM) | solubility at 24 h ([1]; organic solvent or mixture, in PEG 1500, equilibration at 60° C. to melt PEG 1500): 62 mg/mL (≈ 65.9 mM) | effect of changes in the formulation upon the elimination half-life (T1/2) [2]: no effect
SMILES: CO[C@H]1/C=C/O[C@@]2(C)Oc3c(C)c(O)c4c(=O)c(c5oc6cc(N7CCN(CC(C)C)CC7)cc(O)c6nc-5c4c3C2=O)NC(=O)/C(C)=C\C=C\[C@H](C)[C@H](O)[C@@H](C)[C@@H](O)[C@@H](C)[C@H](OC(C)=O)[C@@H]1C [Rifalazil]
